Active and inactive are the calls of the source. The rule behind the calls is not given here.

Data set [1] has as its system H9c2. Description: Cytotoxicity against rat H9C2 cells at 10 uM incubated for 48 hrs by cell counting assay. The following applies: h9c2, 48 h. The class given is toxicity, cell-based.
The test system of data set [2] is H9c2. Description: Protection against doxorubicin-induced cardiotoxicity in rat H9c2 cells assessed as increase in cell viability at 10 uM preincubated for 24 hrs followed by doxorubicin stimulation and measured after 24 hrs. The class given is functional, cell-based. The note with it: time 48.0 hrs.

On to `Cc1cc(CO)c(C(C)C)cc1OC(=O)CCCOC(=O)c1cccc(O)c1`, for which the Activity result in data set [1] is “Non-toxic”. For the same compound, the outcome in data set [2] was inactive.

Consider `Cc1ccc(C(C)C)cc1O` [CARVACROL], for which the Activity result in data set [1] is recorded as “Non-toxic”. The outcome in data set [2] was inactive.

As for `Cc1cc(CO)c(C(C)C)cc1OCCCOC(=O)c1cccc(O)c1`, the Activity result in data set [1] was “Non-toxic”. In addition, the result in data set [2] was inactive. For the compound `Cc1ccc(C(C)C)cc1OCCCOC(=O)c1cccc(O)c1`, the Activity result in data set [1] is on record as “Non-toxic”. With `Cc1ccc(C(C)C)cc1OCCCCOC(=O)c1cccc(O)c1`, the Activity result in data set [1] is reported as “Non-toxic”. In addition, the outcome in data set [2] was Active. Taken in the same sequence, the figures for `Cc1cc(CO)c(C(C)C)cc1OC(=O)COC(=O)c1cccc(O)c1` were “Non-toxic” and “inactive”. Consider `Cc1ccc(C(C)C)cc1OC(=O)COC(=O)c1cccc(O)c1`, for which the Activity entry in data set [1] is reported as “Non-toxic”. As to `Cc1cc(CO)c(C(C)C)cc1OCCCCOC(=O)c1cccc(O)c1`, the Activity result in data set [1] is “Non-toxic”. Moreover, the outcome in data set [2] was inactive. `Cc1cc(CO)c(C(C)C)cc1OCCOC(=O)c1cccc(O)c1`: the Activity result in data set [1] is reported as “Non-toxic”. Further, the outcome in data set [2] was inactive. As to `Cc1cc(CO)c(C(C)C)cc1OC(=O)CCOC(=O)c1cccc(O)c1`, in data set [1], the Activity result was “Non-toxic”. For the same compound, in data set [2], the outcome was inactive. Turning to `Cc1ccc(C(C)C)cc1OCCOC(=O)c1cccc(O)c1`, in data set [1], the Activity result is listed as “Non-toxic”.

`Cc1ccc(C(C)C)cc1OC(=O)CCCOC(=O)c1cccc(O)c1`: in data set [1], the Activity result was “Non-toxic”. With `O=C(O)c1cccc(O)c1` [3-HYDROXYBENZOIC ACID], in data set [1], the Activity result was “Non-toxic”. Further, in data set [2], the result was inactive. Take `Cc1ccc(C(C)C)cc1OC(=O)CCOC(=O)c1cccc(O)c1`: the Activity entry in data set [1] is “Non-toxic”.

These data come from ChEMBL document CHEMBL6074646, “Carvacrol-conjugated 3-Hydroxybenzoic Acids: Design, Synthesis, cardioprotective potential against doxorubicin-induced Cardiotoxicity, and ADMET study” (Bioorg Med Chem Lett, 2024).
